Patent US20230148418A1, “TYROSINASE ANTISENSE OLIGONUCLEOTIDES” (OLIPASS CORPORATION, priority 2017, published 2023)
[C(1O2)] = PNA monomer with modified cytosine nucleobase C(1O2); [A(5)] = PNA monomer with modified adenine nucleobase A(5); [G(6)] = PNA monomer with modified guanine nucleobase G(6); {Fethoc} = Fethoc N-terminal cap of the PNA; {NH2} = C-terminal amide of the PNA

Experiments:
Assay type in all cases: cell-based
human TYR mRNA = test: Nested qPCR for TYR mRNA in human primary epidermal melanocytes; conditions: 1 zM to 10 aM, 5 hours, significant at 1 zM and 10 aM
Description: “ASO 1” was evaluated by TYR nested qPCR for its ability to induce changes in the TYR mRNA level in human primary epidermal melanocytes as follows.
[Cell Culture & ASO Treatment] Primary epidermal melanocytes (Cat. Number PCS-200-013, ATCC) cells were maintained in Dermal Cell Basal Medium (Cat Number PCS-200-030, ATCC) supplemented with Adult Melanocyte Growth Kit Component (Cat. Number PCS-200-042, ATCC). Melanocytes grown in 60 mm culture dish containing 5 mL culture medium were treated with “ASO 1” at 0 zM (negative control), 1 zM, 100 zM, or 10 aM. (3 culture dishes per concentration)
[RNA Extraction & cDNA Synthesis by One-step PCR] Following an incubation with “ASO 1” for 5 hours, total RNA was extracted using “RNeasy Mini Kit” (Cat. Number 74106, Qiagen) according to the manufacturer's instructions. 200 ng of RNA template was subjected to a 25 μL reverse transcription reaction using Super Script® One-Step RT-PCR kit with Platinum® Taq polymerase (Cat. No. 10928-042, Invitrogen) against a set of exon-specific primers of [exon 1_forward(2): (5′→3′) CTCTTTGTCTGGATGCATT; and exon 5_reverse: (5′→3′) CTGTGGTAATCCTCTTTCT] according to the following cycle conditions specified: 50° C., for 30 min and 94° C. for 2 min, which was followed by 15 cycles of 30 sec at 94° C., 30 sec at 50° C., and 1 min at 72° C.
(§1) [Nested PCR Amplification] […]

TYR protein = TYR protein expression by western blot in B16F10 mouse melanoma cells; conditions: 10 zM to 10 aM, 24 hours
Description: “ASO 1M” was evaluated for its ability to down-regulate the TYR protein expression in B16F10 mouse melanoma cells as described below.
B16F10 cells grown in 60 mm culture dish containing 5 mL DMEM were treated with “ASO 1M” at 0 zM (negative control), 10 zM, 100 zM, 1 aM or 10 aM. 24 hours later, cells were washed 2 times with cold PBS (phosphate buffered saline), and then subjected to lysis with 200 μl 1× cell lysis butler (Cat. No. 9803, Cell Signaling Tech) supplemented with 1× protease inhibitors cocktail (Cat. No. P8340, Sigma). 200 μl of each lysate in 1.5 mL e-tube was mixed with […] 5× sample buffer, and boiled at 100° C. for 5 min. 20 μl of the lysate was subjected to electrophoretic separation on a 4-15% gradient TGX gel (Cat No. 456-1086, Bio-Rad), and protein transfer on a 0.45 μm PVDF membrane. The membrane was probed with an anti-TYR antibody (Cat. No. 9319, Cell Signaling Tech) and anti-β-actin antibody (Cat. No. a3845, Sigma).

mouse TYR mRNA = test: Nested qPCR for TYR mRNA in B16F10 mouse melanoma cells; conditions: 1 to 1,000 aM, 5 hours, normalized to no treatment, significant
Description: “ASO 1M” was evaluated by TYR nested qPCR for its ability to induce changes in the mouse TYR mRNA level in B16F10 cells as described below.
[Cell Culture & ASO Treatment] B16F10 cells grown in 60 mm culture dish containing 5 mL DMEM were treated with “ASO 1M” at 0 (negative control), 1, 10,100 or 1000 aM. (2 culture dishes per dose)
[RNA Extraction & cDNA Synthesis by One-step PCR] Following an incubation with “ASO 1M” for 5 hours, total RNA was extracted from cells using “Universal RNA Extraction Kit” (Cat. No. 9767, Takara) according to the manufacturer's instructions. 200 ng of RNA template were used for a 25 μl reverse transcription reaction using One Step RT-PCR kit (Invitrogen, USA) against a set of exon specific primers of [exon 1_forward: (5′→3′) GTAAGTTTGGATTTGGGG; and exon 4_reverse: (5′→3′) AGAGCGGTATGAAAGGAA] according to the following cycle conditions: 50° C. for 30 min and 94° C. for 2 min, followed by 15 cycles of 30 sec at 94° C., 30 sec at 52° C., and 40 sec at. 72° C.
[Nested qPCR Amplification] The cDNA solutions were diluted by 100 times, and 1 μl of each diluted PCR product was subjected to a 20 μl Real-Time PCR reaction with a Taqman probe set spanning the junction of exon 2 and exon 3 (Cat. No. Mm00495818_m1, Thermo Fisher Scientific) according to the following cycle conditions: 95° C. for 3 min followed by 30 cycles 10 sec at 95° C., and 30 sec at 60° C. […]

mouse TYR pre-mRNA = test: Exon skipping by nested PCR in B16F10 mouse melanoma cells; conditions: 1 to 1,000 aM, 5 hours, untreated cells gave full-length and exons 2-3 skipped bands
Description: [Cell Culture & ASO Treatment] B16F10 mouse melanoma cells (Cat. Number CRL-6475, ATCC) were maintained in DMEM (Dulbecco's modified Eagle's essential minimum medium) supplemented with 10% FBS, 1% streptomycin/penicillin, and 0.01 mg/ml bovine insulin. B16F10 cells grown in 60 mm culture dish containing 5 mL DMEM were incubated for 5 hours with “ASO 1M” at 0 (negative control), 1, 10,100 or 1000 aM.
[RNA Extraction & cDNA Synthesis by One-step PCR] Following an incubation for 5 hours, total RNA was extracted using “Universal RNA Extraction Kit” (Cat. Number 9767, Takara) according to the manufacturer's instructions. 200 ng of RNA template was used for a 25 μl reverse transcription reaction using Super Script® One-Step RT-PCR kit with Platinum® Taq polymerase (Cat. No. 10928-042, Invitrogen) against a set of exon-specific primers of [exon1_forward: (5′→3′) GTAAGTTTGGATTTGGGG; and exon 4_reverse: (5′→3′) AGAGC-GGTATGAAAGGAA] according to the following cycle conditions: 50° C. for 30 min and 94° C. for 2 min, followed by 15 cycles of 30 sec at 94° C. 30 sec at 52° C. and 40 sec at 72° C.
as §1
[Identification of Exon Skipping Products] […] The hands of target size were collected and analyzed by Sanger Sequencing.

| Substance | Decrease of full-length TYR mRNA level (human TYR mRNA) [%] | Band intensity of TYR expression versus negative control (TYR protein) | Decrease of full-length TYR mRNA level (mouse TYR mRNA) [%] | Exon skipping: PCR products by electrophoresis (mouse TYR pre-mRNA) |
| --- | --- | --- | --- | --- |
| Fathoc-CA(5)G-ACA(5)-ATC(1O2)-TG(6)T-A(5)-NH2 (CAGACAATCTGTA; all peptide nucleic acid (PNA), [A(5)] at 2, 6, 13, [C(1O2)] at 9, [G(6)] at 11, 5' {Fethoc}, 3' {NH2}; further chemistry not given here) [ASO 1, 13-mer PNA derivative targeting the 3′ splice site of exon 2 in the human TYR pre-mRNA] | ~30 |  |  |  |
| Fethoc-CA(5)A-A(5)TG-A(5)TC(1O2)-TG(6)T-G-NH2 (CAAATGATCTGTG; all peptide nucleic acid (PNA), [A(5)] at 2, 4, 7, [C(1O2)] at 9, [G(6)] at 11, 5' {Fethoc}, 3' {NH2}; further chemistry not given here) [ASO 1M, 13-mer PNA derivative targeting the 3′ splice site of exon 2 in the mouse TYR pre-mRNA; surrogate for ASO 1] |  | considerably weaker | ~40 | yielded only the splice variant TYR mRNA lacking exons 2 and 3 |
